Laboratory results from paper PMC10787398, “Simultaneous determination of colistin sulfate and tigecycline in human plasma by liquid chromatography-tandem mass spectrometry method” (BMC Chemistry, 2024).

What was measured:
[1] = Plasma trough and peak concentrations in patients on intravenous polymyxin and tigecycline (HPLC-MS/MS); conditions: First dose 100 mg maintenance dose 50 mg q12h iv, plasma, HPLC-MS/MS; for Tigecycline Peak concentration: 30 min after 7th administration; for Tigecycline Trough concentration: before 7th administration
From the text: Plasma samples were collected from patients receiving simultaneous intravenous polymyxin and tigecycline treatment. Inclusion criteria: ① Patients receiving simultaneous intravenous polymyxin and tigecycline treatment; ② Age ≥ 18 years; ③ Patients who consent to the monitoring of polymyxin and tigecycline blood drug concentrations during treatment. Exclusion criteria: ① Pregnant or lactating women; ② Treatment duration < 3 days; ③ Local administration; ④ Blood dialysis treatment. Once the blood drug concentration reached a steady state, 3 ml of venous blood was collected before and 30 min after the seventh administration to measure the peak and trough concentrations. This study was conducted with approval from the Ethics Committee of Second Hospital of Hebei Medical University (2020-R551). This study was conducted in accordance with the declaration of Helsinki.
Two hundred microliters of the plasma sample were adopted, with 20 µL of the internal standard added, and it was vortexed for 20 s. Two hundred microliters of 5% trichloroacetic acid was added for acidification and vortexed for 10 s. Two hundred microliters of methanol was added for extraction, vortexed for 2 min, and centrifuged at 10,900 r/min for 5 min. Two hundred microliters of the supernatant were aspirated into the injection bottle, and 10 µL of the sample was injected for the HPLC–MS/MS analysis.
All patients received an initial dose of 100 mg and a maintenance dose of 50 mg q12h for tigecycline. Three milliliters of venous blood were collected before and after the seventh administration to measure the peak and trough concentrations of the drugs.

[2] = Stability of analytes in spiked plasma samples under storage conditions; type: in vitro ADME, human; conditions: for Measured value, Stored at -80℃ for 7 days / Measured value, Automatic sampler 15℃ for 24 h / Measured value, Freeze-thaw for 3 cycles / Measured value, At 4℃ for 12 h / Measured value, At room temperature for 6 h: HPLC-MS/MS, n = 5; for Measured value, Automatic sampler 15℃ for 24 h: automatic sampler 15 ℃ 24 h; for Measured value, Freeze-thaw for 3 cycles: frozen at -80 °C and thawed at room temperature; for Measured value, At 4℃ for 12 h: refrigerator 4 °C 12 h
Method: Plasma samples with low, medium, and high mass concentrations were prepared (the mass concentrations of colistin sulfate were 0.1, 1, and 8 µg/mL, respectively, and those of tigecycline were 0.05, 0.5, and 4 µg/mL, respectively). Five replicates of each concentration were prepared and placed in a refrigerator at 4 °C for 12 h, at room temperature for 6 h, and in an automatic sampler at 15 ℃ for 24 h. The samples were, on three occasions, frozen at − 80 °C and thawed at room temperature, and then placed in a − 80 °C refrigerator for seven days. The concentrations and RSDs of colistin sulfate and tigecycline in the plasma samples were calculated based on the accompanying standard curve of the day to evaluate their stabilities.

[3] = patient 1 (BMI 27.04 kg/m^2, CrCL 107 ml/min, ALB 33.8 g/L)
[4] = patient 2 (BMI 27.69 kg/m^2, CrCL 36 ml/min, ALB 30.35 g/L)
[5] = patient 3 (BMI 23.88 kg/m^2, CrCL 90 ml/min, ALB 26.80 g/L)
[6] = patient 4 (BMI 18.72 kg/m^2, CrCL 111 ml/min, ALB 32.50 g/L)
[7] = patient 5 (BMI 22.14 kg/m^2, CrCL 84 ml/min, ALB 28.00 g/L)
[8] = patient 6 (Femaee, BMI 19.3 kg/m^2, CrCL 161 ml/min, ALB 35.3 g/L)
[9] = patient 7 (BMI 24.16 kg/m^2, CrCL 59 ml/min, ALB 36.72 g/L)
[10] = patient 8 (BMI 27.44 kg/m^2, CrCL 98 ml/min, ALB 33.30 g/L)
[11] = patient 9 (BMI 20.91 kg/m^2, CrCL 106 ml/min, ALB 32.71 g/L)
[12] = patient 10 (BMI 21.95 kg/m^2, CrCL 129 ml/min, ALB 31.89 g/L)
[13] = patient 11 (BMI 22.51 kg/m^2, CrCL 27 ml/min, ALB 27.10 g/L)
[14] = patient 12 (BMI 23.71 kg/m^2, CrCL 170 ml/min, ALB 32.50 g/L)
[15] = plasma QC high, nominal colistin sulfate 8 µg/mL, tigecycline 4 µg/mL
[16] = plasma QC low, nominal colistin sulfate 0.1 µg/mL, tigecycline 0.05 µg/mL
[17] = plasma QC medium, nominal colistin sulfate 1 µg/mL, tigecycline 0.5 µg/mL

Tigecycline Peak concentration [1, 3]: 1.72 µg/mL
Tigecycline Trough concentration [1, 3]: 0.79 µg/mL
Tigecycline Peak concentration [1, 4]: 1.68 µg/mL
Tigecycline Trough concentration [1, 4]: 0.81 µg/mL
Tigecycline Peak concentration [1, 5]: 1.67 µg/mL
Tigecycline Trough concentration [1, 5]: 0.77 µg/mL
Tigecycline Peak concentration [1, 6]: 1.47 µg/mL
Tigecycline Trough concentration [1, 6]: 0.69 µg/mL
Tigecycline Peak concentration [1, 7]: 1.17 µg/mL
Tigecycline Trough concentration [1, 7]: 0.58 µg/mL
Tigecycline Peak concentration [1, 8]: 1.11 µg/mL
Tigecycline Trough concentration [1, 8]: 0.66 µg/mL
Tigecycline Peak concentration [1, 9]: 1.01 µg/mL
Tigecycline Trough concentration [1, 9]: 0.58 µg/mL
Tigecycline Peak concentration [1, 10]: 0.92 µg/mL
Tigecycline Trough concentration [1, 10]: 0.63 µg/mL
Tigecycline Peak concentration [1, 11]: 1.22 µg/mL
Tigecycline Trough concentration [1, 11]: 0.65 µg/mL
Tigecycline Peak concentration [1, 12]: 1.08 µg/mL
Tigecycline Trough concentration [1, 12]: 0.33 µg/mL
Tigecycline Peak concentration [1, 13]: 0.99 µg/mL
Tigecycline Trough concentration [1, 13]: 0.25 µg/mL
Tigecycline Peak concentration [1, 14]: 1.78 µg/mL
Tigecycline Trough concentration [1, 14]: 0.48 µg/mL
Measured value, Stored at -80℃ for 7 days ([2]; plasma QC high, nominal colistin sulfate 8 µg/mL, tigecycline 4 µg/mL, -80 °C 7 days): 4.30 ± 0.03 µg/mL
Measured value, Automatic sampler 15℃ for 24 h [2, 15]: 4.00 ± 0.26 µg/mL
Measured value, Freeze-thaw for 3 cycles [2, 15]: 3.82 ± 0.45 µg/mL
Measured value, At 4℃ for 12 h [2, 15]: 3.93 ± 0.36 µg/mL
Measured value, At room temperature for 6 h ([2]; plasma QC high, nominal colistin sulfate 8 µg/mL, tigecycline 4 µg/mL, room temperature 6 h): 4.87 ± 0.07 µg/mL
Measured value, Stored at -80℃ for 7 days ([2]; plasma QC low, nominal colistin sulfate 0.1 µg/mL, tigecycline 0.05 µg/mL, -80 °C 7 days): 0.05 ± 0.00 µg/mL
Measured value, Automatic sampler 15℃ for 24 h [2, 16]: 0.05 ± 0.00 µg/mL
Measured value, Freeze-thaw for 3 cycles [2, 16]: 0.05 ± 0.00 µg/mL
Measured value, At 4℃ for 12 h [2, 16]: 0.05 ± 0.00 µg/mL
Measured value, At room temperature for 6 h ([2]; plasma QC low, nominal colistin sulfate 0.1 µg/mL, tigecycline 0.05 µg/mL, room temperature 6 h): 0.05 ± 0.00 µg/mL
Measured value, Stored at -80℃ for 7 days ([2]; plasma QC medium, nominal colistin sulfate 1 µg/mL, tigecycline 0.5 µg/mL, -80 °C 7 days): 0.46 ± 0.03 µg/mL
Measured value, Automatic sampler 15℃ for 24 h [2, 17]: 0.49 ± 0.03 µg/mL
Measured value, Freeze-thaw for 3 cycles [2, 17]: 0.52 ± 0.04 µg/mL
Measured value, At 4℃ for 12 h [2, 17]: 0.46 ± 0.01 µg/mL
Measured value, At room temperature for 6 h ([2]; plasma QC medium, nominal colistin sulfate 1 µg/mL, tigecycline 0.5 µg/mL, room temperature 6 h): 0.54 ± 0.03 µg/mL
stability under the above conditions ([2]; plasma samples, 4 °C 12 h, room temperature 6 h, autosampler 15 ℃ 24 h, 3 freeze-thaw cycles, -80 °C 7 days): good stability
Compound: CN(C)c1cc(NC(=O)CNC(C)(C)C)c(O)c2c1C[C@H]1C[C@H]3[C@H](N(C)C)C(O)=C(C(N)=O)C(=O)[C@@]3(O)C(O)=C1C2=O [Tigecycline, tigecycline]
